Experimental data as given in patent publication US6040330A, “Pharmaceutical formulations of taxanes” (BioNumerik Pharmaceuticals, Inc., priority 1999, dated 2000).
In brackets after ≈: the same amount, converted by molar mass.

What was measured:
[1] = maximum solubility in NMP; type: physicochemical; conditions: organic solvent or mixture; in NMP (N-methylpyrrolidin-2-one)
[2] = cited from earlier work

CC(=O)O[C@@]12CO[C@@H]1C[C@H](O)[C@@]1(C)C(=O)[C@H](O)C3=C(C)[C@@H](OC(=O)[C@H](O)[C@@H](NC(=O)OC(C)(C)C)c4ccccc4)C[C@@](O)([C@@H](OC(=O)c4ccccc4)[C@H]21)C3(C)C [Docetaxel]
solubility [1]: ~40 mg/mL (≈ 49.5 mM)
solubility in water (in words) [2]: very poorly soluble in water

CC(=O)O[C@H]1C(=O)[C@@]2(C)[C@H]([C@H](OC(=O)c3ccccc3)[C@]3(O)C[C@H](OC(=O)[C@H](O)[C@@H](NC(=O)c4ccccc4)c4ccccc4)C(C)=C1C3(C)C)[C@]1(OC(C)=O)CO[C@@H]1C[C@@H]2O [Paclitaxel]
solubility [1]: ~40 mg/mL (≈ 46.8 mM)
solubility in water (in words) [2]: very poorly water soluble
water solubility ([2]; in water): less than 10 μg/mL
